The source of these data is patent US20230295140A1, “INHIBITORS OF VAP-1” (Acucela Inc., priority 2021, published 2023).

Common to all, as to assay type: biochemical
In one assay the target is rhMAO-A (Homo sapiens (Human), UniProt P21397). The assay can be described thus: MAO-Glo assay, MAO-A inhibition. In a few lines:
(§1)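 Recombinant human MAO-A or MAO-B with luciferin-derivative substrate (10 μM for MAO-A, […]) in 100 mM HEPES pH 7.5, 5% glycerol, 1 h at room temperature; luminescence read 20 min after detection reagent.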

For the next assay, the target named is rhVAP-1 (Homo sapiens (Human), UniProt Q16853). The assay can be described thus: VAP-1 fluorometric assay (Amplex Red/HRP, benzylamine substrate). To be noted: class symbols, ranges defined in μM. In a few lines:
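Recombinant human VAP-1 oxidizes 50 μM benzylamine in 10 mM NaHCO3 pH 7.4 containing 0.05 mM Amplex Red and 0.5 U HRP, with inhibitor in 0.5% DMSO. After 30 min at 37 °C in the dark, resorufin fluorescence is read […], calibrated against an H2O2 standard curve.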

For a further assay, the target named is rhMAO-B (Homo sapiens (Human), UniProt P27338). The assay can be described thus: MAO-Glo assay, MAO-B inhibition. In a few lines:
as §1

Setting [1] is: class symbols, ranges defined in μM.

Where a name gives a salt, the structure may show the parent alone.

Sequence of rhMAO-B (P27338 whole entry): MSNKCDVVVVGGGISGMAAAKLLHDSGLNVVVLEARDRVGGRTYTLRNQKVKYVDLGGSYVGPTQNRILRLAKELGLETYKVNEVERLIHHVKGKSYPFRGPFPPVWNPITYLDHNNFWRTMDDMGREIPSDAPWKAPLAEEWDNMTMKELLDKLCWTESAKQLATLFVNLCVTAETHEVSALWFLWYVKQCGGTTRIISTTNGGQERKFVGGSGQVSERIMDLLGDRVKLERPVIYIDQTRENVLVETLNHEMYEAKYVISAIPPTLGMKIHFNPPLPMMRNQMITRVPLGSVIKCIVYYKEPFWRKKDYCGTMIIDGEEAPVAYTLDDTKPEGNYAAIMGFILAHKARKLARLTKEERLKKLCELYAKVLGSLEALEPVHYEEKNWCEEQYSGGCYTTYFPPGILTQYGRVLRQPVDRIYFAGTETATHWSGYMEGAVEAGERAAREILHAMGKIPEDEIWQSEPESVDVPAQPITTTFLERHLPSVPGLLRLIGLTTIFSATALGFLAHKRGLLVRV
Sequence of rhMAO-A (P21397 whole entry): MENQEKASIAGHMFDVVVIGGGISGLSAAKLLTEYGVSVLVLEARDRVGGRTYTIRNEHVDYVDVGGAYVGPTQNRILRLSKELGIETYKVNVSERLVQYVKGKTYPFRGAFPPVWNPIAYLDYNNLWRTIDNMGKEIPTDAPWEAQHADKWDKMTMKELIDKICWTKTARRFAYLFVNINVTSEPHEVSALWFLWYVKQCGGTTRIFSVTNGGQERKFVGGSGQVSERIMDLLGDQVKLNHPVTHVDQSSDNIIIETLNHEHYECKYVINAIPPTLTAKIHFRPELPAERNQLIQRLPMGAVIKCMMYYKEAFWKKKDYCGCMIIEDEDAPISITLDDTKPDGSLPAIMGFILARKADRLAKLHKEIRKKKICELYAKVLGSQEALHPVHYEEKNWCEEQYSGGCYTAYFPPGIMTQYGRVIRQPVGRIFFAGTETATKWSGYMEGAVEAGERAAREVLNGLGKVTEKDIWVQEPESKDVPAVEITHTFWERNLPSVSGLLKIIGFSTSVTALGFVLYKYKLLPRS
Sequence of rhVAP-1 (Q16853 whole entry): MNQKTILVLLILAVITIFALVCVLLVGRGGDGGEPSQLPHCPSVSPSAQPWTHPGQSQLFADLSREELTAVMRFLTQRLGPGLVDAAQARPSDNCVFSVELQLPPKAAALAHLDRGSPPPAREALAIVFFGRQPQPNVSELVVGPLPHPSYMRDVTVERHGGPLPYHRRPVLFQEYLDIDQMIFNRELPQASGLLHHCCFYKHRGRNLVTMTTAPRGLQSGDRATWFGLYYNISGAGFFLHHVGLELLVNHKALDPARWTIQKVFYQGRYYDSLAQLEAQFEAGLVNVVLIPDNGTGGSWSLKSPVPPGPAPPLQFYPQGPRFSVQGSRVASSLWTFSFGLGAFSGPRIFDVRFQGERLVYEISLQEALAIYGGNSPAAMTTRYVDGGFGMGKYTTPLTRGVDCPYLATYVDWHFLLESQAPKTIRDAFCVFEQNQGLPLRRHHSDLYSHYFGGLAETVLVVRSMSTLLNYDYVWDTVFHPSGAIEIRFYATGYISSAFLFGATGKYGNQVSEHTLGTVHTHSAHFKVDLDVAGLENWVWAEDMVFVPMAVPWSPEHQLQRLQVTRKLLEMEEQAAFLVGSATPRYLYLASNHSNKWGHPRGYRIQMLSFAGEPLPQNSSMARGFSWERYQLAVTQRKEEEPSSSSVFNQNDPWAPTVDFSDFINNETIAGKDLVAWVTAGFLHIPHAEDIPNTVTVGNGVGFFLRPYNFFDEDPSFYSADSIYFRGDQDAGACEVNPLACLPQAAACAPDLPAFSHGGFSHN

Consider `NC/C(=C\F)COc1ccc2nc(N3CCC(O)C3)oc2c1` (stereo not drawn) [Example 85, (E)-1-(6-((2-(aminomethyl)-3-fluoroallyl)oxy)benzo[d]oxazol-2-yl)pyrrolidin-3-ol 4-methylbenzenesulfonate], for which the concentration for half-maximal inhibition (IC50) on rhMAO-A (setting [1]) was 1 to 10 µM; against rhVAP-1, below 0.1 µM; against rhMAO-B (setting [1]), 1 to 10 µM.
In the case of `CC1CN(c2nc3ccc(OC/C(=C/F)CN)cc3o2)C(C)(C)C1` (stereo not drawn) [Example 86, (E)-3-fluoro-2-(((2-(2,2,4-trimethylpyrrolidin-1-yl)benzo[d]oxazol-6-yl)oxy)methyl)prop-2-en-1-amine 4-methylbenzenesulfonate], the concentration for half-maximal inhibition (IC50) at rhMAO-A (bound printed in cell) was above 50 µM; against rhVAP-1 it was below 0.1 µM; against rhMAO-B (setting [1]) it was 1 to 10 µM.
For `NC/C(=C\F)COc1ccc2nc(NC3CCC(O)C3)oc2c1` (stereo not drawn) [Example 87, (E)-3-((6-((2-(aminomethyl)-3-fluoroallyl)oxy)benzo[d]oxazol-2-yl)amino)cyclopentan-1-ol 4-methylbenzenesulfonate], the IC50 against rhMAO-A (setting [1]) was 1 to 10 µM; on rhVAP-1 it was below 0.1 µM; against rhMAO-B (setting [1]) it was 1 to 10 µM.
Regarding `NC/C(=C\F)COc1ccc2nc(NCCCO)sc2c1` [Example 88, (E)-3-((6-((2-(aminomethyl)-3-fluoroallyl)oxy)benzo[d]thiazol-2-yl)amino)propan-1-ol 4-methylbenzenesulfonate], the IC50 was 1 to 10 µM at rhMAO-A (setting [1]), below 0.1 µM against rhVAP-1 and 1 to 10 µM against rhMAO-B (setting [1]).
`CCCCn1cnc2cc(OC/C(=C/F)CN)ccc21` [Example 89, (E)-2-(((1-butyl-1H-benzo[d]imidazol-5-yl)oxy)methyl)-3-fluoroprop-2-en-1-amine 4-methylbenzenesulfonate]: the results for the IC50 on rhMAO-A (bound printed in cell), against rhVAP-1 and at rhMAO-B (setting [1]) were above 50 µM, below 0.1 µM and 1 to 10 µM, respectively.
For `NC/C(=C\F)COc1ccc2nc(N3CCS(=O)(=O)CC3)oc2c1` [Example 90, (E)-4-(6-((2-(aminomethyl)-3-fluoroallyl)oxy)benzo[d]oxazol-2-yl)thiomorpholine 1,1-dioxide 4-methylbenzenesulfonate], the concentration for half-maximal inhibition (IC50) at rhMAO-A (bound printed in cell) was above 50 µM; at rhVAP-1 it was below 0.1 µM; against rhMAO-B (setting [1]), 1 to 10 µM.
For `Cc1cc(CNc2nc3ccc(OC/C(=C/F)CN)cc3o2)cc(C)n1` [Example 91, (E)-6-((2-(Aminomethyl)-3-fluoroallyl)oxy)-N-((2,6-dimethylpyridin-4-yl)methyl)benzo[d]oxazol-2-amine trihydrochloride], in that order: above 50 µM, below 0.1 µM and 1 to 10 µM.
As to `C=C(CN)c1ccc2nc(CCCC)oc2c1` [Example 92, 2-(2-butylbenzo[d]oxazol-6-yl)prop-2-en-1-amine], the half-inhibitory concentration (IC50) against rhMAO-A (setting [1]) is below 0.1 µM; on rhVAP-1 it was 0.1 to 1 µM; against rhMAO-B (setting [1]) it was below 0.1 µM.
`NC/C(=C/F)COc1ccc2nc(NCCC(Cl)CCO)oc2c1` (stereo not drawn) [Example 93, (Z)-5-((6-((2-(aminomethyl)-3-fluoroallyl)oxy)benzo[d]oxazol-2-yl)amino)-3-chloropentan-1-ol 4-methylbenzenesulfonate]: the IC50 against rhMAO-A (setting [1]) was 1 to 10 µM; at rhVAP-1 it was below 0.1 µM; on rhMAO-B (setting [1]) it was 1 to 10 µM.
Consider `NC/C(=C/F)COc1ccc2nc(NCc3ccncc3)oc2c1` [Example 94, (Z)-6-((2-(aminomethyl)-3-fluoroallyl)oxy)-N-(pyridin-4-ylmethyl)benzo[d]oxazol-2-amine 4-methylbenzenesulfonate], for which the IC50 was above 50 µM at rhMAO-A (bound printed in cell), below 0.1 µM against rhVAP-1 and 0.1 to 1 µM at rhMAO-B (setting [1]).
Turning to “(Z)-2-((6-((2-(aminomethyl)-3-fluoroallyl)oxy)benzo[d]oxazol-2-yl)amino)-N-methylacetamide (4-methylbenzenesulfonate) [Example 63]”, the results for the IC50 against rhMAO-A (bound printed in cell), against rhVAP-1 and against rhMAO-B (bound printed in cell) were above 40 µM, below 0.1 µM and above 40 µM, respectively.

As a reminder, the IC50 is the concentration needed to halve the response being measured. A lower IC50 goes with greater potency in that assay.
